Assay results: PubChem BioAssay (NCI)
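Values below derive from 48-hour exposures of cells grown in 96-well plates, with endpoints linearly interpolated between the two concentrations bracketing the appropriate inhibition level. TGI: concentration producing complete growth inhibition.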

What was measured:
Assay in all cases: NCI anticancer screen, dose series, 48 h
KM20L2 colon = test system: KM20L2 colon
LXFL 529 NSCLC = test system: LXFL 529 NSCLC
DLD-1 colon = test system: DLD-1 colon
DMS 114 small cell lung = test system: DMS 114 small cell lung

O=C(Nc1ccc(Cl)cc1)c1cccc([N+](=O)[O-])c1O
TGI (KM20L2 colon): 98.5 µM
TGI (LXFL 529 NSCLC): 39.8 µM
TGI (DLD-1 colon): > 100 µM
TGI (DMS 114 small cell lung): 14.8 µM
